Read-outs that look alike come from different tables or passages of the source.
Key:
[1] = tested on: Acetylcholinesterase (AChE)
Protocol: Test compounds alone or in association in mixture were solved at different concentrations in medium and then pre-incubated with kit of measure AchE (Promega, France).
Test compounds alone or in association in the NSP01-001-E001 prepared according to example 4 were solved at different concentrations in medium and then pre-incubated with kit of measure AchE (Promega, France).
Kit achetylcholinesterase (Abcam ref ab138871) was used. […] A 10-minutes incubation time was applied. The absorbance was assessed at 410 nm.
The activity of the AchE was evaluated versus an AchE activity standard curve.
Data were expressed in percentage of control conditions (no compound=100%). All values were expressed as mean+/−SEM (s.e.mean) (n=6 wells per condition per culture). Graphs and statistical analyses on the different conditions (ANOVA followed by PLSD Fisher's test when allowed, were performed using GraphPad Prism software version 5.0).

[2] = tested on: primary cortical neurons injured by glutamate; assay: glutamate toxicity on primary cortical neurons (neuron survival, neurite network); assay type: cell-based, rat; conditions: for effect on glutamate toxicity: at the lowest concentrations; for non-active concentration: see example 2
Protocol: Rat cortical neurons were cultured as described by Singer et al., 1999 [J. Neuroscience 19(7), 2455-2463] and Callizot et al. 2013 [J. Neurosc. Res. 91(5), 706-716].
Briefly, pregnant females (Wistar; JanvierLabs, St Berthevin, France) at 15 days of gestation were killed by cervical dislocation. Foetuses were collected and immediately placed in ice-cold L15 Leibovitz medium (Pan Biotech, Aidenbach, Germany, Batch: 4120413) with a 2% penicillin (10,000 U/ml) and streptomycin (10 mg/ml) solution (PS; Pan Biotech, Aidenbach, Germany) and 1% bovine serum albumin (BSA; Pan Biotech, Aidenbach, Germany). Cortex was treated for 20 min at 37° C. with a trypsin-EDTA (Pan Biotech, Aidenbach, Germany) solution at a final concentration of 0.05% trypsin and 0.02% EDTA. The dissociation was stopped by addition of Dulbecco's modified Eagle's medium (DMEM) with 4.5 g/liter of glucose (Pan Biotech, Aidenbach, Germany), containing DNAse I grade II (final concentration 0.5 mg/ml; Pan Biotech, Germany) and 10% fetal calf serum (FCS; Invitrogen, Cergy Pointoise, France). Cells were mechanically dissociated by three forced passages through the tip of a 10-ml pipette. Cells were then centrifuged at 515 g for 10 min at 4° C. The supernatant was discarded, and the pellet was resuspended in a defined culture medium consisting of Neurobasal medium (Invitrogen, Cergy Pointoise, France) with a 2% solution of B27 supplement (Invitrogen, Cergy Pointoise, France), 2 mmol/liter of L-glutamine (Pan Biotech, Aidenbach, Germany), 2% of PS solution, and 10 ng/ml of brain-derived neurotrophic factor (BDNF; Pan Biotech, Aidenbach, Germany). Viable cells were counted in a Neubauer cytometer, using the trypan blue exclusion test. The cells were seeded at a density of 30,000 per well in 96-well plates precoated with poly-L-lysine (Corning Biocoat, Tewksbury, USA) and were cultured at 37° C. in an air (95%)-CO2 (5%) incubator. The medium was changed every 2 days.
On day 13, the cultures were exposed for 20 minutes to glutamate 40 μM in the absence or presence of Huperzia serrata extracts. Then the cells were washed out and new fresh medium containing or not Huperzia serrata extracts was added for another 48 hours.
The cells were then fixed by a cold solution ethanol/acetic acid (95:5 v/v) for 5 minutes at −20° C. After permeabilization with 0.1% of saponin (Sigma), cells were incubated for 2 hours with mouse monoclonal antibody against microtubule-associated-protein 2 (MAP 2; Sigma) at dilution of 1/400 in PBS containing 1% foetal calf serum (Invitrogen) and 0.1% of saponin.
Neuron survival assessment: For each condition 6 wells were assessed, 20 pictures per well were taken using InCell Analyzer™ 1000 (GE Healthcare) with 20× magnification to assess cell bodies (MAP 2 staining). Analysis of picture was done using Developer software (GE Healthcare), the number of neurons per picture was recorded. A mean of neuron number of the 20 pictures was automatically calculated per well, then one data was provided per well (total of 6 raw data were provided per condition).
Neurite network length assessment: For each condition 6 wells were assessed, 20 pictures per well were taken using InCell Analyzer™ 1000 with 20× magnification (20 pictures at X20 representing ˜80% of the total well surface), to assess MAP-2 staining. Analysis of picture was done using Developer software, the total neurite length per picture was recorded. A mean neurite length of the 20 pictures was automatically calculated per well, then one data was provided per well (total of 6 raw data were provided per condition).
The protocol used in these assays is the same as described in example 1. After 13 days of neuron culture, the candidate compounds were solved in DMSO and diluted in culture medium. […]

[3] = tested on: Alzheimer's disease patients; conditions: particularly at a daily dose of 300-500 μg; cited from earlier work

Compound | inhibition of AChE ([1]; 100 pM) [%] | effect on glutamate toxicity [2] | neurite network ([2]; glutamate 40 μM, 20 min, 10 μM and 100 μM) | non-active concentration ([2]; glutamate 40 μM, 20 min) [pM] | inhibition of AChE ([1]; 50 pM) [%] | neurite network ([2]; glutamate 40 μM, 20 min, 1 μM and 5 μM) | tolerability and benefit [3] | lowest active dose ([2]; glutamate 40 μM, 20 min) [nM] | neurite network ([2]; glutamate 40 μM, 20 min, 10 nM) [%] | neuron survival ([2]; glutamate 40 μM, 20 min, 10 nM) [%]
COc1cc(/C=C/C(=O)O)ccc1O [FA, ferulic acid] | ~8 | little or no effect | significant protective effect | 10000 | – | – | – | – | – | –
O=C(O)/C=C/c1ccc(O)c(O)c1 [CA, caffeic acid] | – | little or no effect | – | 500 | ~8 | moderate effect | – | – | – | –
C/C=C1\[C@H]2C=C(C)C[C@]1(N)c1ccc(=O)[nH]c1C2 [HA, huperzine A, reference compound] | – | little or no effect | – | 10 | – | – | well-tolerated and beneficial | 1 | > 90 | 94

— patent US10596166B2, “Combination composition comprising huperzine” (priority 2015, dated 2020)
